From patent publication US11053204B2, “Pyrimidinyloxy benzene derivatives as herbicides” (FMC Corporation, priority 2015, dated 2021)

Assays:
Assay type in all cases: in vivo
[1] = system: waterhemp (common waterhemp, Amaranthus rudis); experiment: Test C postemergence, plant response rating; conditions: for Waterhemp plant response rating: scale 0 to 100 (0 no effect, 100 complete control)
Procedure, shortened: (§1)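 Both timings shared one formulation, a non-phytotoxic solvent mixture with surfactant, and a greenhouse period of 13 to 15 d. Preemergence used seeded loam/sand or silt loam soil, postemergence used 2 to 18 cm plants; visual ratings ran from 0 (no effect) to 100 (complete control).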

[2] = system: ragweed (common ragweed, Ambrosia elatior); experiment: Test C postemergence, plant response rating; conditions: for Ragweed plant response rating: scale 0 to 100 (0 no effect, 100 complete control)
Procedure, shortened: as §1

[3] = system: ryegrass, Italian (Italian ryegrass, Lolium multiflorum); experiment: Test C postemergence, plant response rating; conditions: for Ryegrass, Italian plant response rating: scale 0 to 100 (0 no effect, 100 complete control)
Procedure, shortened: as §1

[4] = system: nutsedge, yellow (yellow nutsedge, Cyperus esculentus); experiment: Test C postemergence, plant response rating; conditions: for Nutsedge, Yellow plant response rating: scale 0 to 100 (0 no effect, 100 complete control)
Procedure, shortened: as §1

kochia (Kochia scoparia) [5] = experiment: Test C postemergence, plant response rating; conditions: for Kochia plant response rating: scale 0 to 100 (0 no effect, 100 complete control)
Procedure, shortened: as §1

[6] = system: chickweed (common chickweed, Stellaria media); experiment: Test C postemergence, plant response rating; conditions: for Chickweed plant response rating: scale 0 to 100 (0 no effect, 100 complete control)
Procedure, shortened: as §1

corn (Zea mays) = experiment: Test C postemergence, plant response rating; conditions: for Corn plant response rating: scale 0 to 100 (0 no effect, 100 complete control)
Procedure, shortened: as §1

[7] = system: galium (catchweed bedstraw, Galium aparine); experiment: Test C postemergence, plant response rating; conditions: for Galium plant response rating: scale 0 to 100 (0 no effect, 100 complete control)
Procedure, shortened: as §1

soybean (Glycine max) = experiment: Test C postemergence, plant response rating; conditions: for Soybean plant response rating: scale 0 to 100 (0 no effect, 100 complete control)
Procedure, shortened: as §1

[8] = system: crabgrass, large (large crabgrass, Digitaria sanguinalis); experiment: Test C postemergence, plant response rating; conditions: for Crabgrass, Large plant response rating: scale 0 to 100 (0 no effect, 100 complete control)
Procedure, shortened: as §1

[9] = system: lambsquarters (Chenopodium album); experiment: Test C postemergence, plant response rating; conditions: for Lambsquarters plant response rating: scale 0 to 100 (0 no effect, 100 complete control)
Procedure, shortened: as §1

[10] = system: oat, wild (wild oat Avena fatua); experiment: Test C postemergence, plant response rating; conditions: for Oat, Wild plant response rating: scale 0 to 100 (0 no effect, 100 complete control)
Procedure, shortened: as §1

[11] = system: giant foxtail (Setaria faberii); experiment: Test A preemergence, visual injury rating; conditions: for Foxtail, Giant plant response rating: 0 to 100 scale (0 no effect, 100 complete control)
Procedure, shortened: (§2)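 Injury scores run from 0, no effect, to 100, complete control, judged by eye against untreated plants roughly 10 days after treatment. Chemicals carried a surfactant in a non-phytotoxic solvent and went onto loam–sand soil preemergence or onto one- to two-leaf seedlings postemergence.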

[12] = system: ragweed (common ragweed, Ambrosia elatior); experiment: Test A preemergence, visual injury rating; conditions: for Ragweed plant response rating: 0 to 100 scale (0 no effect, 100 complete control)
Procedure, shortened: as §2

[13] = system: pigweed (Amaranthus retroflexus); experiment: Test A preemergence, visual injury rating; conditions: for Pigweed plant response rating: 0 to 100 scale (0 no effect, 100 complete control)
Procedure, shortened: as §2

[14] = system: Italian ryegrass (Lolium multiflorum); experiment: Test A preemergence, visual injury rating; conditions: for Ryegrass, Italian plant response rating: 0 to 100 scale (0 no effect, 100 complete control)
Procedure, shortened: as §2

kochia (Kochia scoparia) [15] = experiment: Test A preemergence, visual injury rating; conditions: for Kochia plant response rating: 0 to 100 scale (0 no effect, 100 complete control)
Procedure, shortened: as §2

[16] = system: barnyardgrass (Echinochloa crus-galli); experiment: Test A preemergence, visual injury rating; conditions: for Barnyardgrass plant response rating: 0 to 100 scale (0 no effect, 100 complete control)
Procedure, shortened: as §2

[17] = 31 g ai/ha, 0 to 100 scale, 0 no effect, 100 complete control

CCCC(=O)c1c(Br)cccc1Oc1ncc(Cl)cn1 [Compound 75]
100: Foxtail, Giant plant response rating ([11]; 125 g ai/ha) | Foxtail, Giant plant response rating ([11]; 500 g ai/ha) | Pigweed plant response rating ([13]; 125 g ai/ha) | Pigweed plant response rating ([13]; 500 g ai/ha) | Ryegrass, Italian plant response rating ([14]; 500 g ai/ha) | Kochia plant response rating (kochia (Kochia scoparia) [15]; 500 g ai/ha) | Barnyardgrass plant response rating ([16]; 125 g ai/ha) | Barnyardgrass plant response rating ([16]; 500 g ai/ha)
90: Plant response rating, Waterhemp ([1]; 31 g ai/ha, scale 0 to 100) | Waterhemp plant response rating ([1]; 62 g ai/ha) | Kochia plant response rating (kochia (Kochia scoparia) [5]; 62 g ai/ha) | Chickweed plant response rating ([6]; 62 g ai/ha) | Lambsquarters plant response rating ([9]; 125 g ai/ha)
0: Plant response rating, Ryegrass, Italian ([3]; 16 g ai/ha, scale 0 to 100) | Plant response rating, Nutsedge, Yellow ([4]; 16 g ai/ha, scale 0 to 100) | Plant response rating, Nutsedge, Yellow ([4]; 31 g ai/ha, scale 0 to 100) | Nutsedge, Yellow plant response rating ([4]; 62 g ai/ha) | Ragweed plant response rating ([12]; 125 g ai/ha)
50: Ragweed plant response rating ([2]; 62 g ai/ha) | Plant response rating, Soybean (soybean (Glycine max); 16 g ai/ha, scale 0 to 100) | Plant response rating, Lambsquarters ([9]; 16 g ai/ha, scale 0 to 100)
10: Plant response rating, Ragweed ([2]; 31 g ai/ha, scale 0 to 100) | Plant response rating, Ryegrass, Italian ([3]; 31 g ai/ha, scale 0 to 100) | Ryegrass, Italian plant response rating ([3]; 62 g ai/ha) | Plant response rating, Corn (corn (Zea mays); 16 g ai/ha, scale 0 to 100) | Plant response rating, Crabgrass, Large ([8]; 16 g ai/ha, scale 0 to 100) | Plant response rating, Crabgrass, Large ([8]; 31 g ai/ha, scale 0 to 100) | Ragweed plant response rating ([12]; 500 g ai/ha)
60: Ragweed plant response rating ([2]; 125 g ai/ha) | Plant response rating, Chickweed ([6]; 16 g ai/ha, scale 0 to 100)
35: Plant response rating, Oat, Wild ([10]; 31 g ai/ha, scale 0 to 100) | Oat, Wild plant response rating ([10]; 125 g ai/ha)
80: Galium plant response rating ([7]; 125 g ai/ha) | Ryegrass, Italian plant response rating ([14]; 125 g ai/ha) | Kochia plant response rating (kochia (Kochia scoparia) [15]; 125 g ai/ha)
70: Plant response rating, Galium ([7]; 31 g ai/ha, scale 0 to 100) | Galium plant response rating ([7]; 62 g ai/ha) | Lambsquarters plant response rating ([9]; 62 g ai/ha)
98: Kochia plant response rating (kochia (Kochia scoparia) [5]; 125 g ai/ha) | Chickweed plant response rating ([6]; 125 g ai/ha)
20: Corn plant response rating (corn (Zea mays); 125 g ai/ha)
5: Plant response rating, Ragweed ([2]; 16 g ai/ha, scale 0 to 100) | Ryegrass, Italian plant response rating ([3]; 125 g ai/ha) | Nutsedge, Yellow plant response rating ([4]; 125 g ai/ha) | Plant response rating, Oat, Wild ([10]; 16 g ai/ha, scale 0 to 100)
55: Plant response rating, Lambsquarters ([9]; 31 g ai/ha, scale 0 to 100)
65: Plant response rating, Soybean (soybean (Glycine max); 31 g ai/ha, scale 0 to 100)
75: Plant response rating, Kochia (kochia (Kochia scoparia) [5]; 16 g ai/ha, scale 0 to 100)
15: Plant response rating, Corn (corn (Zea mays); 31 g ai/ha, scale 0 to 100) | Corn plant response rating (corn (Zea mays); 62 g ai/ha) | Crabgrass, Large plant response rating ([8]; 62 g ai/ha)
40: Plant response rating, Galium ([7]; 16 g ai/ha, scale 0 to 100) | Oat, Wild plant response rating ([10]; 62 g ai/ha)
25: Crabgrass, Large plant response rating ([8]; 125 g ai/ha)
85: Plant response rating, Waterhemp ([1]; 16 g ai/ha, scale 0 to 100) | Plant response rating, Kochia (kochia (Kochia scoparia) [5]; 31 g ai/ha, scale 0 to 100) | Plant response rating, Chickweed ([6]; 31 g ai/ha, scale 0 to 100) | Soybean plant response rating (soybean (Glycine max); 62 g ai/ha) | Soybean plant response rating (soybean (Glycine max); 125 g ai/ha)
95: Waterhemp plant response rating ([1]; 125 g ai/ha)

O=C(CCCC(F)(F)F)c1c(Br)cccc1Oc1ncc(Cl)cn1 [Compound 77]
65: Soybean plant response rating (soybean (Glycine max); 125 g ai/ha)
5: Plant response rating, Ryegrass, Italian ([3]; 31 g ai/ha, scale 0 to 100) | Plant response rating, Nutsedge, Yellow ([4]; 16 g ai/ha, scale of 0 to 100) | Plant response rating, Oat, Wild ([10]; 31 g ai/ha, scale 0 to 100)
40: Plant response rating, Ragweed ([2]; 16 g ai/ha, scale of 0 to 100) | Plant response rating, Ragweed ([2]; 31 g ai/ha, scale 0 to 100)
90: Lambsquarters plant response rating ([9]; 125 g ai/ha)
50: Plant response rating, Soybean (soybean (Glycine max); 31 g ai/ha, scale 0 to 100)
30: Crabgrass, Large plant response rating ([8]; 62 g ai/ha) | Crabgrass, Large plant response rating ([8]; 125 g ai/ha)
75: Plant response rating, Galium ([7]; 16 g ai/ha, scale of 0 to 100) | Plant response rating, Lambsquarters ([9]; 31 g ai/ha, scale 0 to 100)
55: Plant response rating, Lambsquarters ([9]; 16 g ai/ha, scale of 0 to 100)
20: Corn plant response rating (corn (Zea mays); 62 g ai/ha) | Plant response rating, Barnyardgrass [16, 17]
25: Corn plant response rating (corn (Zea mays); 125 g ai/ha) | Plant response rating, Soybean (soybean (Glycine max); 16 g ai/ha, scale of 0 to 100) | Plant response rating, Crabgrass, Large ([8]; 31 g ai/ha, scale 0 to 100)
70: Ragweed plant response rating ([2]; 125 g ai/ha) | Soybean plant response rating (soybean (Glycine max); 62 g ai/ha) | Lambsquarters plant response rating ([9]; 62 g ai/ha) | Ryegrass, Italian plant response rating ([14]; 125 g ai/ha)
10: Ryegrass, Italian plant response rating ([3]; 62 g ai/ha) | Ryegrass, Italian plant response rating ([3]; 125 g ai/ha) | Plant response rating, Nutsedge, Yellow ([4]; 31 g ai/ha, scale 0 to 100) | Plant response rating, Crabgrass, Large ([8]; 16 g ai/ha, scale of 0 to 100) | Oat, Wild plant response rating ([10]; 62 g ai/ha)
100: Waterhemp plant response rating ([1]; 62 g ai/ha) | Waterhemp plant response rating ([1]; 125 g ai/ha) | Plant response rating, Kochia (kochia (Kochia scoparia) [5]; 31 g ai/ha, scale 0 to 100) | Kochia plant response rating (kochia (Kochia scoparia) [5]; 62 g ai/ha) | Kochia plant response rating (kochia (Kochia scoparia) [5]; 125 g ai/ha) | Chickweed plant response rating ([6]; 62 g ai/ha) | Chickweed plant response rating ([6]; 125 g ai/ha) | Plant response rating, Foxtail, Giant [11, 17] | Foxtail, Giant plant response rating ([11]; 125 g ai/ha) | Plant response rating, Pigweed [13, 17] | Pigweed plant response rating ([13]; 125 g ai/ha) | Kochia plant response rating (kochia (Kochia scoparia) [15]; 125 g ai/ha) | Barnyardgrass plant response rating ([16]; 125 g ai/ha)
95: Plant response rating, Waterhemp ([1]; 16 g ai/ha, scale of 0 to 100) | Plant response rating, Kochia (kochia (Kochia scoparia) [5]; 16 g ai/ha, scale of 0 to 100) | Galium plant response rating ([7]; 62 g ai/ha)
0: Plant response rating, Ryegrass, Italian ([3]; 16 g ai/ha, scale of 0 to 100) | Plant response rating, Oat, Wild ([10]; 16 g ai/ha, scale of 0 to 100) | Plant response rating, Ragweed [12, 17] | Ragweed plant response rating ([12]; 125 g ai/ha) | Plant response rating, Ryegrass, Italian [14, 17]
35: Ragweed plant response rating ([2]; 62 g ai/ha)
98: Plant response rating, Waterhemp ([1]; 31 g ai/ha, scale 0 to 100) | Plant response rating, Galium ([7]; 31 g ai/ha, scale 0 to 100) | Galium plant response rating ([7]; 125 g ai/ha)
15: Nutsedge, Yellow plant response rating ([4]; 62 g ai/ha) | Nutsedge, Yellow plant response rating ([4]; 125 g ai/ha) | Plant response rating, Corn (corn (Zea mays); 16 g ai/ha, scale of 0 to 100) | Plant response rating, Corn (corn (Zea mays); 31 g ai/ha, scale 0 to 100) | Oat, Wild plant response rating ([10]; 125 g ai/ha)
80: Plant response rating, Chickweed ([6]; 16 g ai/ha, scale of 0 to 100) | Plant response rating, Chickweed ([6]; 31 g ai/ha, scale 0 to 100) | Plant response rating, Kochia (kochia (Kochia scoparia) [15]; [17])
